Measurements as given in ChEMBL document CHEMBL1671654, “In vivo activity of the pyrrolopyrazolyl-substituted oxazolidinone RWJ-416457” (Antimicrob Agents Chemother, 2009).
In brackets after ≈: the same amount, converted by molar mass. Activity calls are given as the source filed them. No cut-off for these calls is given here.

Key:
Staphylococcus aureus [1] = assay: Bacteriostatic activity against methicillin-susceptible Staphylococcus aureus Smith ATCC 13709 infected in SKH1 mouse at 20 mg/kg/day, po administered post infection measured after 48 hrs; assay type: functional, organism-based
[2] = Clearance in CF-1 mouse at 2 mg/kg, iv; assay type: ADME, organism-based; set-up: dose 2 mg/kg, route intravenous; details: in vivo
[3] = Ratio of fAUC (24 hrs) for community-associated methicillin-resistant Staphylococcus aureus OC8525 infected sc dosed mouse to MIC for community-associated methicillin-resistant Staphylococcus aureus OC8525; assay type: functional
Staphylococcus aureus [4] = assay: Antibacterial activity against methicillin-susceptible Staphylococcus aureus ATCC 13709 infected in sc dosed Swiss Webster mouse administered at 1 to 3 hrs post infection measured after 3 days; assay type: functional; details: ATCC 13709, sc
Streptococcus pneumoniae [5] = assay: Antibacterial activity against penicillin-susceptible Streptococcus pneumoniae ATCC 6301 infected in sc dosed Swiss Webster mouse administered at 1 to 3 hrs post infection measured after 3 days; assay type: functional; details: ATCC 6301, sc
Staphylococcus aureus [6] = assay: Antibacterial activity against methicillin-susceptible Staphylococcus aureus ATCC 13709 infected in iv dosed Swiss Webster mouse administered at 1 to 3 hrs post infection measured after 3 days; assay type: functional; details: ATCC 13709, iv
[7] = Ratio of fAUC (24 hrs) for Methicillin-susceptible Staphylococcus aureus ATCC 13709 infected po dosed mouse to MIC for Methicillin-susceptible Staphylococcus aureus ATCC 1370; assay type: functional
[8] = Ratio of fAUC (24 hrs) for Methicillin-susceptible Staphylococcus aureus ATCC 13709 infected sc dosed mouse to MIC for Methicillin-susceptible Staphylococcus aureus ATCC 1370; assay type: functional
[9] = Ratio of fAUC (24 hrs) for penicillin-susceptible Streptococcus pneumoniae ATCC 6301 infected iv dosed mouse to MIC for penicillin-susceptible Streptococcus pneumoniae ATCC 6301; assay type: functional
[10] = Half life in CF-1 mouse at 2 mg/kg, iv; assay type: ADME, organism-based; set-up: dose 2 mg/kg, route intravenous; details: in vivo
[11] = Ratio of fAUC (24 hrs) for penicillin-susceptible Streptococcus pneumoniae ATCC 6301 infected po dosed mouse to MIC for penicillin-susceptible Streptococcus pneumoniae ATCC 6301; assay type: functional
[12] = Cmax in CF-1 mouse at 2 mg/kg, iv; assay type: ADME, organism-based; set-up: dose 2 mg/kg, route intravenous; details: in vivo
Staphylococcus aureus [13] = assay: Antibacterial activity against community-associated methicillin-resistant Staphylococcus aureus OC8525 infected in iv dosed Swiss Webster mouse administered at 1 to 3 hrs post infection measured after 3 days; assay type: functional
Staphylococcus aureus [14] = assay: Antibacterial activity against community-associated methicillin-resistant Staphylococcus aureus OC8525 infected in sc dosed Swiss Webster mouse administered at 1 to 3 hrs post infection measured after 3 days; assay type: functional
[15] = AUC (0 to 24 hrs) in CF-1 mouse at 2 mg/kg, iv; assay type: ADME, organism-based; set-up: time < 24 hr, dose 2 mg/kg, route intravenous; details: plasma
Streptococcus pneumoniae [16] = assay: Antibacterial activity against penicillin-susceptible Streptococcus pneumoniae ATCC 6301 after 16 to 20 hrs by broth microdilution method; assay type: functional
[17] = Ratio of fAUC (24 hrs) for penicillin-susceptible Streptococcus pneumoniae ATCC 6301 infected sc dosed mouse to MIC for penicillin-susceptible Streptococcus pneumoniae ATCC 6301; assay type: functional
[18] = Ratio of fAUC (24 hrs) for community-associated methicillin-resistant Staphylococcus aureus OC8525 infected po dosed mouse to MIC for community-associated methicillin-resistant Staphylococcus aureus OC8525; assay type: functional
Mus musculus [19] = assay: fAUC (0 to 24 hrs) in CF-1 mouse at 10 mg/kg, po; assay type: ADME, organism-based; set-up: dose 10 mg/kg, route oral; details: in vivo
Mus musculus [20] = assay: fCmax in CF-1 mouse at 10 mg/kg, sc; assay type: ADME, organism-based; set-up: dose 10 mg/kg, route subcutaneous; details: in vivo
[21] = AUC (0 to 24 hrs) in CF-1 mouse at 10 mg/kg, po; assay type: ADME, organism-based; set-up: time < 24 hr, dose 10 mg/kg, route oral; details: plasma
[22] = Half life in CF-1 mouse at 10 mg/kg, sc; assay type: ADME, organism-based; set-up: dose 10 mg/kg, route subcutaneous; details: in vivo
Streptococcus pneumoniae [23] = assay: Antibacterial activity against penicillin-susceptible Streptococcus pneumoniae ATCC 6301 infected in po dosed Swiss Webster mouse administered at 1 to 3 hrs post infection measured after 3 days; assay type: functional; details: ATCC 6301, po
Streptococcus pneumoniae [24] = assay: Antibacterial activity against penicillin-susceptible Streptococcus pneumoniae ATCC 6301 infected in iv dosed Swiss Webster mouse administered at 1 to 3 hrs post infection measured after 3 days; assay type: functional; details: ATCC 6301, iv
Streptococcus pneumoniae [25] = assay: Antibacterial activity against penicillin-susceptible Streptococcus pneumoniae ATCC 6301 after 16 to 20 hrs by broth microdilution method relative to Linezolid; assay type: functional
Staphylococcus aureus [26] = assay: Antibacterial activity against Methicillin-resistant Staphylococcus aureus assessed as skin lesion size; assay type: functional
Staphylococcus aureus [27] = assay: Antibacterial activity against Methicillin-susceptible Staphylococcus aureus assessed as skin lesion size; assay type: functional
Mus musculus [28] = assay: fCmax in CF-1 mouse at 2 mg/kg, iv; assay type: ADME, organism-based; set-up: dose 2 mg/kg, route intravenous; details: in vivo
Mus musculus [29] = assay: fAUC (0 to 24 hrs) in CF-1 mouse at 2 mg/kg, iv; assay type: ADME, organism-based; set-up: dose 2 mg/kg, route intravenous; details: in vivo
[30] = Apparent oral clearance in CF-1 mouse at 10 mg/kg, sc; assay type: ADME, organism-based; set-up: dose 10 mg/kg, route oral; details: in vivo
Staphylococcus aureus [31] = assay: Antibacterial activity against methicillin-susceptible Staphylococcus aureus ATCC 13709 infected in po dosed Swiss Webster mouse administered at 1 to 3 hrs post infection measured after 3 days; assay type: functional; details: ATCC 13709, po
Staphylococcus aureus [32] = assay: Antibacterial activity against community-associated methicillin-resistant Staphylococcus aureus OC8525 infected in SKH1 mouse assessed as log reduction in CFU/g skin at 5 mg/kg/day, po administered post infection measured after 48 hrs; assay type: functional, organism-based
Staphylococcus aureus [33] = assay: Antibacterial activity against methicillin-susceptible Staphylococcus aureus Smith ATCC 13709 infected in SKH1 mouse assessed as log reduction in CFU/g skin at => 80 mg/kg/day, po administered post infection measured after 48 hrs; assay type: functional
Staphylococcus aureus [34] = assay: Antibacterial activity against Methicillin-susceptible Staphylococcus aureus ATCC 13709 after 16 to 20 hrs by broth microdilution method relative to Linezolid; assay type: functional
Mus musculus [35] = assay: fCmax in CF-1 mouse at 10 mg/kg, po; assay type: ADME, organism-based; set-up: dose 10 mg/kg, route oral; details: in vivo
[36] = Tmax in CF-1 mouse serum at 10 mg/kg, po; assay type: ADME, organism-based; set-up: dose 10 mg/kg, route oral
[37] = Cmax in CF-1 mouse at 10 mg/kg, po; assay type: ADME, organism-based; set-up: dose 10 mg/kg, route oral; details: in vivo
Mus musculus [38] = assay: fAUC (0 to 24 hrs) in CF-1 mouse at 10 mg/kg, sc; assay type: ADME, organism-based; set-up: dose 10 mg/kg, route subcutaneous; details: in vivo
[39] = Half life in CF-1 mouse at 10 mg/kg, po; assay type: ADME, organism-based; set-up: dose 10 mg/kg, route oral; details: in vivo
Staphylococcus aureus [40] = assay: Antibacterial activity against methicillin-susceptible Staphylococcus aureus Smith ATCC 13709 infected in SKH1 mouse assessed as log reduction in CFU/g skin at 5 mg/kg/day, po administered post infection measured after 48 hrs; assay type: functional, organism-based
[41] = Ratio of fAUC (24 hrs) for Methicillin-susceptible Staphylococcus aureus ATCC 13709 infected iv dosed mouse to MIC for Methicillin-susceptible Staphylococcus aureus ATCC 1370; assay type: functional
Staphylococcus aureus [42] = assay: Antibacterial activity against community-associated methicillin-resistant Staphylococcus aureus OC8525 infected in po dosed Swiss Webster mouse administered at 1 to 3 hrs post infection measured after 3 days; assay type: functional
Staphylococcus aureus [43] = assay: Antibacterial activity against Methicillin-susceptible Staphylococcus aureus ATCC 13709 after 16 to 20 hrs by broth microdilution method; assay type: functional
[44] = Apparent oral clearance in CF-1 mouse at 10 mg/kg, po; assay type: ADME, organism-based; set-up: dose 10 mg/kg, route oral; details: in vivo
Staphylococcus aureus [45] = assay: Antibacterial activity against community-associated methicillin-resistant Staphylococcus aureus OC8525 infected in SKH1 mouse assessed as log reduction in CFU/g skin up to 320 mg/kg/day, po administered post infection measured after 48 hrs; assay type: functional
Streptococcus pneumoniae [46] = assay: Antibacterial activity against penicillin-susceptible Streptococcus pneumoniae ATCC 6301 infected in po dosed CF-1 mouse administered at 24 hrs post infection measured after 48 hrs relative to Linezolid; assay type: functional
Staphylococcus aureus [47] = assay: Antibacterial activity against community-associated methicillin-resistant Staphylococcus aureus OC8525 after 16 to 20 hrs by broth microdilution method; assay type: functional
[48] = Ratio of fAUC (24 hrs) for community-associated methicillin-resistant Staphylococcus aureus OC8525 infected iv dosed mouse to MIC for community-associated methicillin-resistant Staphylococcus aureus OC8525; assay type: functional
[49] = Tmax in CF-1 mouse serum at 10 mg/kg, sc; assay type: ADME, organism-based; set-up: dose 10 mg/kg, route subcutaneous
[50] = Cmax in CF-1 mouse at 10 mg/kg, sc; assay type: ADME, organism-based; set-up: dose 10 mg/kg, route subcutaneous; details: in vivo
[51] = AUC (0 to 24 hrs) in CF-1 mouse at 10 mg/kg, sc; assay type: ADME, organism-based; set-up: time < 24 hr, dose 10 mg/kg, route subcutaneous; details: plasma

CC(=O)NC[C@H]1CN(c2ccc(N3Cc4cn(C)nc4C3)c(F)c2)C(=O)O1
Activity (Staphylococcus aureus [1]): Active
clearance [2]: 10.5 mL/min/kg
fAUC/MIC [3]: 4.1
ED50 (Staphylococcus aureus [4]): 4.7 mg/kg/day
ED50 (Streptococcus pneumoniae [5]): 9.3 mg/kg/day
ED50 (Staphylococcus aureus [6]): 4 mg/kg/day
fAUC/MIC [7]: 13
fAUC/MIC [8]: 8.3
fAUC/MIC [9]: 8.6
half-life [10]: 1.5 h
fAUC/MIC [11]: 13
Cmax [12]: 4400 ng/mL
ED50 (Staphylococcus aureus [13]): 1.5 mg/kg/day
ED50 (Staphylococcus aureus [14]): 3.5 mg/kg/day
AUC(0-t) at 24 h [15]: 3200 ng·h/mL
MIC (Streptococcus pneumoniae [16]): 1 µg/mL (≈ 2.68 µM)
fAUC/MIC [17]: 8.3
fAUC/MIC [18]: 6.3
fAUC (Mus musculus [19]): 13000 ng·h/mL
fCmax (Mus musculus [20]): 4.1 µg/mL
AUC(0-t) at 24 h [21]: 23000 ng·h/mL
half-life [22]: 2 h
ED50 (Streptococcus pneumoniae [23]): 3.1 mg/kg/day
ED50 (Streptococcus pneumoniae [24]): 18 mg/kg/day
fold change (FC) (Streptococcus pneumoniae [25]): 2
Activity (Staphylococcus aureus [26]): 23%
Activity (Staphylococcus aureus [27]): 14%
fCmax (Mus musculus [28]): 2.4 µg/mL
fAUC (Mus musculus [29]): 1700 ng·h/mL
CL/F [30]: 10.8 mL/min/kg
ED50 (Staphylococcus aureus [31]): 3.4 mg/kg/day
Activity (Staphylococcus aureus [32]): inactive
FC (Staphylococcus aureus [33]): 0.9
fold change (FC) (Staphylococcus aureus [34]): 2
fCmax (Mus musculus [35]): 1.9 µg/mL
Tmax [36]: 2 h
Cmax [37]: 3500 ng/mL
fAUC (Mus musculus [38]): 8300 ng·h/mL
half-life [39]: 3.4 h
Activity (Staphylococcus aureus [40]): inactive
fAUC/MIC [41]: 8.6
ED50 (Staphylococcus aureus [42]): 2.1 mg/kg/day
MIC (Staphylococcus aureus [43]): 1 µg/mL (≈ 2.68 µM)
CL/F [44]: 7.17 mL/min/kg
FC (Staphylococcus aureus [45]): 1
fold change (FC) (Streptococcus pneumoniae [46]): 2
ED50 (Streptococcus pneumoniae [46]; Streptococcus pneumoniae, ATCC 6301, po): 3.1 mg/kg/day
MIC (Staphylococcus aureus [47]): 2 µg/mL (≈ 5.36 µM)
fAUC/MIC [48]: 4.3
Tmax [49]: 0.5 h
Cmax [50]: 7500 ng/mL
AUC(0-t) at 24 h [51]: 15000 ng·h/mL
